# Laboratory results reported in patent US11802120B2, “Fused cyclic urea derivatives as CRHR2 antagonist” (RaQualia Pharma Inc., priority 2018, dated 2023).
# Target: T1, human CRHR2-alpha (Homo sapiens, UniProt Q13324)
# T1 sequence (Q13324 1-411): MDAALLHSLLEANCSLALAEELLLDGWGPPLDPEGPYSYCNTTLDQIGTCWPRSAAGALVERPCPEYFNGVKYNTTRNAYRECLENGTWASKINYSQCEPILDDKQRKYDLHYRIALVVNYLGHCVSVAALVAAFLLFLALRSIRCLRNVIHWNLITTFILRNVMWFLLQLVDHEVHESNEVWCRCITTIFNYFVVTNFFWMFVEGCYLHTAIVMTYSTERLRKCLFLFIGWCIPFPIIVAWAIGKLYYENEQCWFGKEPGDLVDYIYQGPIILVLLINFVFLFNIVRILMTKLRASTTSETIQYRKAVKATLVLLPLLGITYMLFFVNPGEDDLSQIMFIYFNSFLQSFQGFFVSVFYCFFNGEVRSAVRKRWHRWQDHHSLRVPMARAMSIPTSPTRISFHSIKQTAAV
# Assay: cAMP functional assay for human CRHR2 (LANCE Ultra cAMP, TR-FRET)
# Type: cell-based
# Conditions: CHO-K1 cells expressing human CRHR2-alpha, agonist human urocortin2 at EC80, cAMP; read-out: IC50 against CRHR2
# How it was run: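 Inhibition of agonist-driven cAMP was assessed in recombinant CHO-K1 cells at 25° C, using 30 min compound pretreatment and 30 min stimulation with EC80 human urocortin2 (CRHR2) or CRF (CRHR1). IC50 came from dose-response fitting.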
row,Compound,IC50
1,"CNc1ccc(-n2c(=O)n(C[C@H]3CC[C@H](NC(=O)c4cc(Cl)cnc4C(F)(F)F)CC3)c3ccccc32)nc1 [Example 692, 5-chloro-N-((1r,4r)-4-((3-(5-(methylamino)pyridin-2-yl)-2-oxo-2,3-dihydro-1H-benzo[d]imidazol-1-yl)methyl)cyclohexyl)-2-(trifluoromethyl)nicotinamide]",< 0.3 µM
2,"COc1ccc(Cl)c(-n2c(=O)n(C[C@H]3CC[C@H](NC(=O)c4cc(Cl)cnc4C(F)F)CC3)c3ccncc32)c1 [Example 693, 5-chloro-N-((1r,4r)-4-((3-(2-chloro-5-methoxyphenyl)-2-oxo-2,3-dihydro-1H-imidazo [4,5-c]pyridin-1-yl)methyl)cyclohexyl)-2-(difluoromethyl) nicotinamide]",< 0.3 µM
3,"Cc1ncc(Cl)cc1C(=O)N[C@H]1CC[C@H](Cn2c(=O)n(-c3ccc(-c4ncc[nH]4)nc3)c3ccccc32)CC1 [Example 695, N-((1r,4r)-4-((3-(6-(1H-imidazol-2-yl)pyridin-3-yl)-2-oxo-2,3-dihydro-1H-benzo[d]imidazol-1-yl)methyl)cyclohexyl)-5-chloro-2-methylnicotinamide]",< 0.3 µM
4,"Cc1ncc(Cl)cc1C(=O)N[C@H]1CC[C@H](Cn2c(=O)n(-c3cccc(-c4cn[nH]c4)c3)c3ccccc32)CC1 [Example 696, N-((1r,4r)-4-((3-(3-(1H-pyrazol-4-yl)phenyl)-2-oxo-2,3-dihydro-1H-benzo[d]imidazol-1-yl)methyl)cyclohexyl)-5-chloro-2-methylnicotinamide]",< 0.3 µM
5,"O=C(N[C@H]1CC[C@H](Cn2c(=O)n(-c3cccc(-c4cn[nH]c4)c3)c3ccccc32)CC1)c1cc(Cl)cnc1C(F)F [Example 697, N-((1r,4r)-4-((3-(3-(1H-pyrazol-4-yl)phenyl)-2-oxo-2,3-dihydro-1H-benzo[d]imidazol-1-yl)methyl)cyclohexyl)-5-chloro-2-(difluoromethyl)nicotinamide]",< 0.3 µM
6,"Cn1cc(-c2cc(-n3c(=O)n(C[C@H]4CC[C@H](NC(=O)c5cc(Cl)cnc5C(F)F)CC4)c4ccccc43)ccn2)cn1 [Example 699, 5-chloro-2-(difluoromethyl)-N-((1r,4r)-4-((3-(2-(1-methyl-1H-pyrazol-4-yl)pyridin-4-yl)-2-oxo-2,3-dihydro-1H-benzo [d]imidazol-1-yl)methyl)cyclo-hexyl)nicotinamide]",< 0.3 µM
7,"Cn1ccc(-c2cccc(-n3c(=O)n(C[C@H]4CC[C@H](NC(=O)c5cc(Cl)cnc5C(F)F)CC4)c4ccccc43)c2)n1 [Example 700, 5-chloro-2-(difluoromethyl)-N-((1r,4r)-4-((3-(3-(1-methyl-1H-pyrazol-3-yl)phenyl)-2-oxo-2,3-dihydro-1H-benzo[d]imidazol-1-yl)methyl)cyclohexyl) nicotinamide]",< 0.3 µM
8,"Cn1ccc(-c2cncc(-n3c(=O)n(C[C@H]4CC[C@H](NC(=O)c5cc(Cl)cnc5C(F)F)CC4)c4ccccc43)c2)n1 [Example 701, 5-chloro-2-(difluoromethyl)-N-((1r,4r)-4-((3-(5-(1-methyl-1H-pyrazol-3-yl)pyridin-3-yl)-2-oxo-2,3-dihydro-1H-benzo [d]imidazol-1-yl)methyl)cyclo-hexyl)nicotinamide]",< 0.3 µM
9,"Cn1ccc(-c2cc(-n3c(=O)n(C[C@H]4CC[C@H](NC(=O)c5cc(Cl)cnc5C(F)F)CC4)c4ccccc43)ccn2)n1 [Example 702, 5-chloro-2-(difluoromethyl)-N-((1r,4r)-4-((3-(2-(1-methyl-1H-pyrazol-3-yl)pyridin-4-yl)-2-oxo-2,3-dihydro-1H-benzo[d]imidazol-1-yl)methyl)cyclohexyl)nicotinamide]",< 0.3 µM
10,"O=C(N[C@H]1CC[C@H](Cn2c(=O)n(-c3cncc(-n4cccn4)c3)c3ccccc32)CC1)c1cc(Cl)cnc1C(F)F [Example 703, N-((1r,4r)-4-((3-(5-(1H-pyrazol-1-yl)pyridin-3-yl)-2-oxo-2,3-dihydro-1H-benzo [d]imidazol-1-yl)methyl)cyclohexyl)-5-chloro-2-(difluoromethyl)nicotinamide]",< 0.3 µM
11,"CNc1ccc(-n2c(=O)n(C[C@H]3CC[C@H](NC(=O)c4cc(Cl)cnc4C(F)(F)F)CC3)c3cc(F)ccc32)cn1 [Example 704, 5-chloro-N-((1r,4r)-4-((6-fluoro-3-(6-(methylamino)pyridin-3-yl)-2-oxo-2,3-dihydro-1H-benzo[d]imidazol-1-yl)methyl)cyclo-hexyl)-2-(trifluoromethyl) nicotinamide]",< 0.3 µM
12,"CNc1ccc(-n2c(=O)n(C[C@H]3CC[C@H](NC(=O)c4cc(Cl)cnc4C(F)(F)F)CC3)c3ccc(F)cc32)cn1 [Example 705, 5-chloro-N-((1r,4r)-4-((5-fluoro-3-(6-(methylamino)pyridin-3-yl)-2-oxo-2,3-dihydro-1H-benzo[d]imidazol-1-yl)methyl)cyclo-hexyl)-2-(trifluoromethyl) nicotinamide]",< 0.3 µM
13,"O=C(N[C@H]1CC[C@H](Cn2c(=O)n(-c3ccnc(N4CCCC4=O)c3)c3ccccc32)CC1)c1cc(Cl)cnc1C(F)F [Example 706, 5-chloro-2-(difluoromethyl)-N-((1r,4r)-4-((2-oxo-3-(2-(2-oxopyrrolidin-1-yl)pyridin-4-yl)-2,3-dihydro-1H-benzo[d]imidazol-1-yl)methyl)cyclo-hexyl)nicotinamide]",< 0.3 µM
14,"CN1CCN(c2cc(-n3c(=O)n(C[C@H]4CC[C@H](NC(=O)c5cc(Cl)cnc5C(F)F)CC4)c4ccccc43)ccn2)C1=O [Example 707, 5-chloro-2-(difluoromethyl)-N-((1r,4r)-4-((3-(2-(3-methyl-2-oxoimidazolidin-1-yl)pyridin-4-yl)-2-oxo-2,3-dihydro-1H-benzo[d]imidazol-1-yl)methyl)cyclohexyl) nicotinamide]",< 0.3 µM
15,"Cc1cc2cc(-n3c(=O)n(C[C@H]4CC[C@H](NC(=O)c5cc(Cl)cnc5C(F)F)CC4)c4cccnc43)cnc2n1C [Example 708, 5-chloro-2-(difluoromethyl)-N-((1r,4r)-4-((3-(1,2-dimethyl-1H-pyrrolo[2,3-b]pyridin-5-yl)-2-oxo-2,3-dihydro-1H-imidazo[4,5-b]pyridin-1-yl)methyl)cyclohexyl)nicotinamide]",< 0.3 µM
16,"O=C(N[C@H]1CC[C@H](Cn2c(=O)n(-c3cnc4[nH]c(CO)cc4c3)c3ccccc32)CC1)c1cc(Cl)cnc1C(F)F [Example 709, 5-chloro-2-(difluoromethyl)-N-((1r,4r)-4-((3-(2-(hydroxymethyl)-1H-pyrrolo[2,3-b]pyridin-5-yl)-2-oxo-2,3-dihydro-1H-benzo[d]imidazol-1-yl)methyl)cyclohexyl)nicotinamide]",< 0.3 µM
17,"COc1ccc(-n2c(=O)n(C[C@H]3CC[C@H](NC(=O)c4cc(Cl)cnc4C(F)F)CC3)c3cccnc32)cc1F [Example 710, 5-chloro-2-(difluoromethyl)-N-((1r,4r)-4-((3-(3-fluoro-4-methoxyphenyl)-2-oxo-2,3-dihydro-1H-imidazo[4,5-b]pyridin-1-yl)methyl)cyclo-hexyl)nicotinamide]",< 0.3 µM
18,"O=C(N[C@H]1CC[C@H](Cn2c(=O)n(-c3ccc(OCCO)nc3)c3ccc(F)cc32)CC1)c1cc(Cl)cnc1C(F)F [Example 712, 5-chloro-2-(difluoromethyl)-N-((1r,4r)-4-((6-fluoro-3-(6-(2-hydroxyethoxy)pyridin-3-yl)-2-oxo-2,3-dihydro-1H-benzo[d]imidazol-1-yl)methyl)cyclohexyl)nicotinamide]",< 0.3 µM
19,"O=C(N[C@H]1CC[C@H](Cn2c(=O)n(-c3ccc(NCCO)nc3)c3ccc(F)cc32)CC1)c1cc(Cl)cnc1C(F)F [Example 713, 5-chloro-2-(difluoromethyl)-N-((1r,4r)-4-((6-fluoro-3-(6-((2-hydroxyethyl)amino)pyridin-3-yl)-2-oxo-2,3-di-hydro-1H-benzo[d]imidazol-1-yl)methyl)cyclohexyl) nicotinamide]",< 0.3 µM
20,"O=C(N[C@H]1CC[C@H](Cn2c(=O)n(-c3ccc(NCCO)cn3)c3ccccc32)CC1)c1cc(Cl)cnc1C(F)F [Example 715, 5-chloro-2-(difluoromethyl)-N-((1r,4r)-4-((3-(5-((2-hydroxyethyl)amino)pyridin-2-yl)-2-oxo-2,3-dihydro-1H-benzo[d]imidazol-1-yl)methyl)cyclohexyl)nicotinamide]",< 0.3 µM
21,"O=C(N[C@H]1CC[C@H](Cn2c(=O)n(-c3ccc(N4CCNC4=O)cn3)c3ccccc32)CC1)c1cc(Cl)cnc1C(F)F [Example 717, 5-chloro-2-(difluoromethyl)-N-((1r,4r)-4-((2-oxo-3-(5-(2-oxoimidazolidin-1-yl)pyridin-2-yl)-2,3-dihydro-1H-benzo [d]imidazol-1-yl)methyl)cyclo-hexyl)nicotinamide]",< 0.3 µM
22,"O=C(N[C@H]1CC[C@H](Cn2c(=O)n(-c3cc(F)ccc3Cl)c3cnccc32)CC1)c1cc(Cl)cnc1C(F)F [Example 718, 5-chloro-N-((1r,4r)-4-((3-(2-chloro-5-fluorophenyl)-2-oxo-2,3-dihydro-1H-imidazo[4,5-c]pyridin-1-yl)methyl)cyclo-hexyl)-2-(difluoromethyl) nicotinamide]",< 0.3 µM
23,"COc1ccc(F)c(-n2c(=O)n(C[C@H]3CC[C@H](NC(=O)c4cc(Cl)cnc4C(F)F)CC3)c3ncccc32)c1 [Example 720, 5-chloro-2-(difluoromethyl)-N-((1r,4r)-4-((1-(2-fluoro-5-methoxyphenyl)-2-oxo-1H-imidazo[4,5-b]pyridin-3(2H)-yl)methyl)cyclohexyl) nicotinamide]",< 0.3 µM
